Values after ≈ are worked out from the molar mass of the structure shown.
Experiments:
Assay in all cases: In vitro antibacterial evaluation: minimum inhibitory concentration (MIC), broth dilution method
Assay type in all cases: cell-based
Enterococcus sp. = system: Enterococcus sp.
Summary of the method: (§1)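 MIC by broth dilution in Mueller-Hinton II medium following NCCLS M7-A2. Inoculum was 5×10^5 CFU/mL and antibiotic was tested over 64-0.06 μg/mL. Gram-positive panel included clinical isolates resistant to methicillin, penicillin and/or vancomycin.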

Streptococcus sp. = system: Streptococcus sp.
Summary of the method: as §1

Staphylococcus sp. = conditions: broth dilution, 18 hours at 35° C.
Summary of the method: as §1

Escherichia coli = system: Escherichia coli
Summary of the method: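 Following NCCLS approved standard M7-A2, compounds are serially diluted from 64 to 0.06 μg/mL in Muller-Hinton II […] and inoculated at 5×10^5 CFU/mL; the MIC is the minimum concentration at which growth is inhibited.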

[1] = broth dilution, inoculum 5×10^5 CFU/mL, 18 hours at 35° C.

In the case of `CC(c1ccccc1)C1NC(=O)CNC(=O)C(CO)NC(=O)C(C(O)C2CNC(=N)N2C2OC(CO)C(O)C(O)C2O)NC(=O)C(C(O)C2CNC(=N)N2)NC(=O)C(Cc2ccc(OC3OC(CO)C(OC4OC5COC(c6ccc(-c7cccs7)cc6)OC5C(O)C4O)C(O)C3O)cc2)NC1=O` (stereo not drawn) [Example 163, Cyclo[glycyl-β-methylphenylalanyl-O-[4-O-[4,6-O-[4-(2-thienyl)benzylidene]hexopyranosyl]-hexopyranosyl]tyrosyl-3-(2-iminoimidazolidin-4-yl)seryl-3-(3-hexopyranosyl-2-iminoimidazolidin-4-yl)serylseryl]], the “MIC Enterococcus avium (GC 4558)” value (Enterococcus sp.; [1]) is reported as 4 µg/mL (≈ 2.73 µM), the “MIC Enterococcus faecalis (ATCC 29212)” value (Enterococcus sp.; [1]) is reported as 8 µg/mL (≈ 5.46 µM) and the “MIC Enterococcus faecalis (GC 2242)” value (Enterococcus sp.; [1]) is reported as 4 µg/mL (≈ 2.73 µM). The “MIC Enterococcus faecalis (GC 2691)” value (Enterococcus sp.; [1]) was 4 µg/mL (≈ 2.73 µM), the “MIC Enterococcus faecalis (GC 3059)” value (Enterococcus sp.; [1]) was 8 µg/mL (≈ 5.46 µM) and the “MIC Enterococcus faecalis (GC 4552)” value (Enterococcus sp.; [1]) was 8 µg/mL (≈ 5.46 µM). For the same compound, the “MIC Enterococcus faecalis (GC 4553)” value (Enterococcus sp.; [1]) was 4 µg/mL (≈ 2.73 µM), the “MIC Enterococcus faecalis (GC 4554)” value (Enterococcus sp.; [1]) was 8 µg/mL (≈ 5.46 µM) and the “MIC Enterococcus faecalis (GC 6189)” value (Enterococcus sp.; [1]) was 4 µg/mL (≈ 2.73 µM). The “MIC Enterococcus faecium (GC 2243)” value (Enterococcus sp.; [1]) was 8 µg/mL (≈ 5.46 µM), the “MIC Enterococcus faecium (GC 4556)” value (Enterococcus sp.; [1]) was 4 µg/mL (≈ 2.73 µM) and the “MIC Enterococcus faecium (GC 4557)” value (Enterococcus sp.; [1]) was 8 µg/mL (≈ 5.46 µM). For the same compound, the “MIC Enterococcus faecalis (ATCC 29212)” value (Enterococcus sp.; strain ATCC 29212) was 8 µg/mL (≈ 5.46 µM), the “MIC Enterococcus faecalis (GC 2242)” value (Enterococcus sp.; strain GC 2242) was 4 µg/mL (≈ 2.73 µM) and the “MIC Enterococcus faecium (GC 2243)” value (Enterococcus sp.; strain GC 2243) was 8 µg/mL (≈ 5.46 µM). The “MIC Enterococcus faecalis (GC 2691)” value (Enterococcus sp.; strain GC 2691) was 4 µg/mL (≈ 2.73 µM), the “MIC Enterococcus faecalis (GC 3059)” value (Enterococcus sp.; strain GC 3059) was 8 µg/mL (≈ 5.46 µM) and the “MIC Enterococcus faecalis (GC 4552)” value (Enterococcus sp.; strain GC 4552) was 8 µg/mL (≈ 5.46 µM). For the same compound, the “MIC Enterococcus faecalis (GC 4553)” value (Enterococcus sp.; strain GC 4553) was 4 µg/mL (≈ 2.73 µM), the “MIC Enterococcus faecalis (GC 4554)” value (Enterococcus sp.; strain GC 4554) was 8 µg/mL (≈ 5.46 µM) and the “MIC Enterococcus faecium (GC 4556)” value (Enterococcus sp.; strain GC 4556) was 4 µg/mL (≈ 2.73 µM). For the same compound, the “MIC Enterococcus faecium (GC 4557)” value (Enterococcus sp.; strain GC 4557) was 8 µg/mL (≈ 5.46 µM), the “MIC Enterococcus avium (GC 4558)” value (Enterococcus sp.; strain GC 4558) was 4 µg/mL (≈ 2.73 µM) and the “MIC Enterococcus faecalis (GC 6189)” value (Enterococcus sp.; strain GC 6189) was 4 µg/mL (≈ 2.73 µM). The “MIC Streptococcus agalactiae (GC 4564)” value (Streptococcus sp.; [1]) was under 0.5 µg/mL, the “MIC Streptococcus pneumoniae (ATCC 6301)” value (Streptococcus sp.; [1]) was under 0.5 µg/mL and the “MIC Streptococcus pneumoniae (GC 1894)” value (Streptococcus sp.; [1]) was under 0.5 µg/mL. For the same compound, the “MIC Streptococcus pneumoniae (GC 4565)” value (Streptococcus sp.; [1]) was 1 µg/mL (≈ 0.682 µM), the “MIC Streptococcus pyogenes (GC 4563)” value (Streptococcus sp.; [1]) was under 0.5 µg/mL and the “MIC Streptococcus pneumoniae (ATCC 6301)” value (Streptococcus sp.; strain ATCC 6301) was under 0.5 µg/mL. For the same compound, the “MIC Streptococcus pneumoniae (GC 1894)” value (Streptococcus sp.; strain GC 1894) was under 0.5 µg/mL, the “MIC Streptococcus pyogenes (GC 4563)” value (Streptococcus sp.; strain GC 4563) was under 0.5 µg/mL and the “MIC Streptococcus agalactiae (GC 4564)” value (Streptococcus sp.; strain GC 4564) was under 0.5 µg/mL. The “MIC Streptococcus pneumoniae (GC 4565)” value (Streptococcus sp.; strain GC 4565) was 1 µg/mL (≈ 0.682 µM), the “MIC Coagulase Negative Staphylococcus (GC 4547)” value (Staphylococcus sp.; 5×10^5 CFU/mL) was 8 µg/mL (≈ 5.46 µM) and the “MIC Coagulase Negative Staphylococcus (GC 4548)” value (Staphylococcus sp.; 5×10^5 CFU/mL) was 1 µg/mL (≈ 0.682 µM). For the same compound, the “MIC Coagulase Negative Staphylococcus (GC 4549)” value (Staphylococcus sp.; 5×10^5 CFU/mL) was 4 µg/mL (≈ 2.73 µM), the “MIC Coagulase Negative Staphylococcus (GC 4551)” value (Staphylococcus sp.; 5×10^5 CFU/mL) was 2 µg/mL (≈ 1.36 µM) and the “MIC Coagulase Negative Staphylococcus (GC 6257)” value (Staphylococcus sp.; 5×10^5 CFU/mL) was 2 µg/mL (≈ 1.36 µM). The “MIC Staphylococcus aureus (ATCC 29213)” value (Staphylococcus sp.; 5×10^5 CFU/mL) was 4 µg/mL (≈ 2.73 µM), the “MIC Staphylococcus aureus (GC 1131)” value (Staphylococcus sp.; 5×10^5 CFU/mL) was 4 µg/mL (≈ 2.73 µM) and the “MIC Staphylococcus aureus (GC 3051)” value (Staphylococcus sp.; 5×10^5 CFU/mL) was 8 µg/mL (≈ 5.46 µM). The “MIC Staphylococcus aureus (GC 3053)” value (Staphylococcus sp.; 5×10^5 CFU/mL) was 8 µg/mL (≈ 5.46 µM), the “MIC Staphylococcus aureus (GC 4541)” value (Staphylococcus sp.; 5×10^5 CFU/mL) was 4 µg/mL (≈ 2.73 µM) and the “MIC Staphylococcus aureus (GC 4542)” value (Staphylococcus sp.; 5×10^5 CFU/mL) was 4 µg/mL (≈ 2.73 µM). The “MIC Staphylococcus aureus (GC 4544)” value (Staphylococcus sp.; 5×10^5 CFU/mL) was 4 µg/mL (≈ 2.73 µM), the “MIC Staphylococcus aureus (GC 4545)” value (Staphylococcus sp.; 5×10^5 CFU/mL) was 4 µg/mL (≈ 2.73 µM) and the “MIC Staphylococcus aureus-SMITH (GC 4543)” value (Staphylococcus sp.; 5×10^5 CFU/mL) was 1 µg/mL (≈ 0.682 µM). For the same compound, the “MIC Staphylococcus haemolyticus (GC 4546)” value (Staphylococcus sp.; 5×10^5 CFU/mL) was 4 µg/mL (≈ 2.73 µM), the “MIC Staphylococcus aureus (ATCC 29213)” value (Staphylococcus sp.; strain ATCC 29213) was 4 µg/mL (≈ 2.73 µM) and the “MIC Staphylococcus aureus (GC 1131)” value (Staphylococcus sp.; strain GC 1131) was 4 µg/mL (≈ 2.73 µM). For the same compound, the “MIC Staphylococcus aureus (GC 3051)” value (Staphylococcus sp.; strain GC 3051) was 8 µg/mL (≈ 5.46 µM), the “MIC Staphylococcus aureus (GC 3053)” value (Staphylococcus sp.; strain GC 3053) was 8 µg/mL (≈ 5.46 µM) and the “MIC Staphylococcus aureus (GC 4541)” value (Staphylococcus sp.; strain GC 4541) was 4 µg/mL (≈ 2.73 µM). The “MIC Staphylococcus aureus (GC 4542)” value (Staphylococcus sp.; strain GC 4542) was 4 µg/mL (≈ 2.73 µM), the “MIC Staphylococcus aureus-SMITH (GC 4543)” value (Staphylococcus sp.; strain GC 4543) was 1 µg/mL (≈ 0.682 µM) and the “MIC Staphylococcus aureus (GC 4544)” value (Staphylococcus sp.; strain GC 4544) was 4 µg/mL (≈ 2.73 µM). For the same compound, the “MIC Staphylococcus aureus (GC 4545)” value (Staphylococcus sp.; strain GC 4545) was 4 µg/mL (≈ 2.73 µM), the “MIC Staphylococcus haemolyticus (GC 4546)” value (Staphylococcus sp.; strain GC 4546) was 4 µg/mL (≈ 2.73 µM) and the “MIC Coagulase Negative Staphylococcus (GC 4547)” value (Staphylococcus sp.; strain GC 4547) was 8 µg/mL (≈ 5.46 µM). For the same compound, the “MIC Coagulase Negative Staphylococcus (GC 4548)” value (Staphylococcus sp.; strain GC 4548) was 1 µg/mL (≈ 0.682 µM), the “MIC Coagulase Negative Staphylococcus (GC 4549)” value (Staphylococcus sp.; strain GC 4549) was 4 µg/mL (≈ 2.73 µM) and the “MIC Coagulase Negative Staphylococcus (GC 4551)” value (Staphylococcus sp.; strain GC 4551) was 2 µg/mL (≈ 1.36 µM). The “MIC Coagulase Negative Staphylococcus (GC 6257)” value (Staphylococcus sp.; strain GC 6257) was 2 µg/mL (≈ 1.36 µM), the “MIC Escherichia coli (ATCC 25922)” value (Escherichia coli; strain ATCC 25922) was over 64 µg/mL and the “MIC Escherichia coli (GC 4559)” value (Escherichia coli; strain GC 4559) was 64 µg/mL (≈ 43.7 µM). The “MIC Escherichi coli (GC 4560)” value (Escherichia coli; strain GC 4560) was 8 µg/mL (≈ 5.46 µM).

— patent US8247211B2, “Glycopeptide antibiotics” (American Cyanamid Company, priority 2001, dated 2012)
